Calls of active or inactive are those of the source.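 The calls were made as follows: active = fold change below 0.65 in a panel strain, matching the primary screen cutoff; inactive = the rest.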
How the values were obtained:
Experiment in all cases: GFP reporter expression in transducer deletion yeast, mechanism study for yeast TOR pathway modulator project, S. cerevisiae, transducer mutant strains, GFP-tagged proteins (AID 504481);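 also: 1 = DMSO wells as ratio of mean channel GFP fluorescence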
Conditions in all cases: S. cerevisiae transducer mutants, GFP-fusion expression, flow cytometry, 3 h
YCR005C = test system: YCR005C
BY4741 = test system: BY4741
YCL025C = test system: YCL025C
YKL103C = test system: YKL103C
YBR084C-A = test system: YBR084C-A
YNL142W = test system: YNL142W

Row | SMILES | fold change (YCR005C) | fold change (BY4741) | fold change (YCL025C) | fold change (YKL103C) | fold change (YBR084C-A) | fold change (YNL142W)
1 | O=[N+]([O-])c1cc(Cl)c2cccnc2c1O | 0.922 (inactive) | 0.935 (inactive) | 1.27 (inactive) | 1.43 (inactive) | 1.05 (inactive) | 1.14 (inactive)
2 | CC(Oc1ccc(Cl)cc1)C(=O)NNC(=S)NC(=O)c1ccco1 (centres undefined) | 1.21 (inactive) | 1.49 (inactive) | 0.906 (inactive) | 2.14 | 1.09 (inactive) | 1.33 (inactive)
3 | C/C(=N\NC(=O)c1ccc(C(C)(C)C)cc1)c1ccccn1 | 1.47 (inactive) | 0.905 (inactive) | 1 (inactive) | 0.921 (inactive) | 0.975 (inactive) | 0.97 (inactive)
4 | O=C(OCn1ncc(Br)c(Br)c1=O)c1c(F)cccc1F | 1.48 (inactive) | 0.865 (inactive) | 0.921 (inactive) | 1.31 (inactive) | 0.936 (inactive) | 0.911 (inactive)
5 | Cc1ccc(S(=O)(=O)c2ccc([N+](=O)[O-])cn2)cc1 | 1.62 | 1.05 (inactive) | 1.17 (inactive) | 1.65 | 0.894 (inactive) | 1.36 (inactive)
6 | O=C(OCn1ncc(Br)c(Br)c1=O)c1ccc(F)cc1 | 1.68 | 0.946 (inactive) | 0.996 (inactive) | 1.76 | 1.02 (inactive) | 1.06 (inactive)
7 | CCOC(=O)c1c(C)oc2c1c(C(c1cccnc1)N1CCOCC1)c(O)c1ccccc12 (centres undefined) | 1.27 (inactive) | 1.18 (inactive) | 0.907 (inactive) | 1.36 (inactive) | 0.759 (inactive) | 1.26 (inactive)
8 | O=[N+]([O-])c1ccc(S(=O)(=O)c2cccc(C(F)(F)F)c2)nc1 | 1.32 (inactive) | 1.08 (inactive) | 0.901 (inactive) | 1.49 (inactive) | 0.793 (inactive) | 1.26 (inactive)
9 | CC(C)(C)C(=O)NC(=S)NNC(=O)c1ccc(-c2ccccc2)cc1 | 1.2 (inactive) | 1.48 (inactive) | 1.32 (inactive) | 2.06 | 1.19 (inactive) | 1.46 (inactive)
10 | COc1ccc([N+](=O)[O-])c(S(=O)(=O)c2ccc(Cl)cc2)n1 | 0.893 (inactive) | 1.1 (inactive) | 1.31 (inactive) | 2.87 | 0.841 (inactive) | 1.28 (inactive)
11 | CN1CCN(C(c2ccc(C(F)(F)F)cc2)c2ccc3cccnc3c2O)CC1 (centres undefined) | 0.725 (inactive) | 0.87 (inactive) | 0.972 (inactive) | 1.35 (inactive) | 0.878 (inactive) | 0.91 (inactive)
12 | CC1=NN(c2ccccc2)C(=O)C1C(c1ccccc1[N+](=O)[O-])C(C#N)C#N (centres undefined) | 1 (inactive) | 1.12 (inactive) | 0.965 (inactive) | 1.82 | 1.09 (inactive) | 1.1 (inactive)
13 | O=C(Oc1c(Cl)cc(Cl)c2cccnc12)c1ccco1 | 1.2 (inactive) | 1.03 (inactive) | 0.784 (inactive) | 1.37 (inactive) | 1.14 (inactive) | 0.881 (inactive)
14 | CC(=O)c1ccc(N2CCN(C(=O)c3ccc(Br)cc3)CC2)c(F)c1 | 1.72 | 1.31 (inactive) | 1.22 (inactive) | 1.69 | 1.27 (inactive) | 1.3 (inactive)
15 | Cc1ccc(/C=C2/C(=O)ON=C2c2ccccc2)o1 | 1.47 (inactive) | 1.42 (inactive) | 0.837 (inactive) | 1.61 | 0.942 (inactive) | 1.23 (inactive)
16 | Cc1cc(C(=O)Nc2nc(-c3ccccn3)cs2)ccc1[N+](=O)[O-] | 0.918 (inactive) | 0.913 (inactive) | 0.981 (inactive) | 1.01 (inactive) | 0.967 (inactive) | 0.965 (inactive)
17 | c1ccc(-c2cccc(-c3ccccn3)n2)nc1 | 0.73 (inactive) | 0.815 (inactive) | 0.958 (inactive) | 1.41 (inactive) | 0.903 (inactive) | 0.833 (inactive)

Row | SMILES | fold change (YCR005C) | fold change (BY4741) | fold change (YCL025C) | fold change (YKL103C) | fold change (YBR084C-A) | fold change (YNL142W)
18 | Cc1ccc(C2=NOC(=O)/C2=C\c2ccc(C)o2)cc1 | 1.25 (inactive) | 1.8 (inactive) | 0.812 (inactive) | 1.2 (inactive) | 0.943 (inactive) | 1.11 (inactive)
19 | CC(C)(C)n1nc(-c2ccc(Cl)cc2)c2c(N)ncnc21 | 0.358 (inactive) | 0.757 (inactive) | 0.899 (inactive) | 1.03 (inactive) | 0.489 | 0.924 (inactive)
20 | CCSc1nnc(NC(=O)c2ccccn2)s1 | 0.897 (inactive) | 0.946 (inactive) | 0.982 (inactive) | 1.13 (inactive) | 0.968 (inactive) | 1.05 (inactive)
21 | O=[N+]([O-])c1cc(O)c2ncccc2c1 | 0.721 (inactive) | 0.838 (inactive) | 0.835 (inactive) | 1.13 (inactive) | 0.972 (inactive) | 0.761 (inactive)
22 | CC(C)(C)C(=O)C(Cl)C(=O)Nc1ccccc1 (centres undefined) | 1.44 (inactive) | 1 (inactive) | 1.11 (inactive) | 2.24 | 0.877 (inactive) | 1.36 (inactive)
23 | Clc1ccc(N=c2ssnc2Cl)cc1 | 0.981 (inactive) | 1.08 (inactive) | 0.846 (inactive) | 1.45 (inactive) | 0.99 (inactive) | 0.957 (inactive)
24 | CCc1ccc(OCC(=O)NNC(=S)NC(=O)C2CC2)c(Br)c1 | 1.17 (inactive) | 1.54 (inactive) | 1.03 (inactive) | 2.4 | 1.09 (inactive) | 1.15 (inactive)
25 | O=C(Oc1c(Cl)cc(Cl)c2cccnc12)c1cccc([N+](=O)[O-])c1 | 1.03 (inactive) | 0.946 (inactive) | 1.16 (inactive) | 1.56 | 1.18 (inactive) | 1.08 (inactive)
26 | CO[C@H]1C[C@@H]2CC[C@@H](C)[C@@](O)(O2)C(=O)C(=O)N2CCCC[C@H]2C(=O)O[C@H]([C@H](C)C[C@@H]2CC[C@@H](O)[C@H](OC)C2)CC(=O)[C@H](C)/C=C(\C)[C@@H](O)[C@@H](OC)C(=O)[C@H](C)C[C@H](C)/C=C/C=C/C=C/1C | 3.51 | 1.12 (inactive) | 2.29 | 2.54 | 0.616 | 12.2
27 | O=[N+]([O-])c1ccc(O)c2ncccc12 | 1.21 (inactive) | 1.48 (inactive) | 1.47 (inactive) | 2.22 | 1.19 (inactive) | 1.26 (inactive)
28 | COc1ccc(/C=C/C(=O)NC(=S)NNC(=O)c2cnccn2)cc1 | 1.05 (inactive) | 1.19 (inactive) | 1.01 (inactive) | 1.51 | 0.936 (inactive) | 1.27 (inactive)
29 | O=S(=O)(CCN(CCS(=O)(=O)C(F)(F)F)CC1CCCO1)C(F)(F)F (centres undefined) | 1.23 (inactive) | 0.957 (inactive) | 0.948 (inactive) | 1.89 | 0.989 (inactive) | 0.965 (inactive)
30 | O=C(CCc1ccccc1)NNC(=S)NC(=O)c1ccccc1 | 1.32 (inactive) | 1.64 (inactive) | 0.995 (inactive) | 2.56 | 1.22 (inactive) | 1.2 (inactive)
31 | O=C(Oc1ccnc2cc(Cl)ccc12)N1CCCCCC1 | 0.6 (inactive) | 0.878 (inactive) | 1.78 | 0.97 (inactive) | 1.09 (inactive) | 1.97
32 | CCCOc1ccc(C(=O)NNC(=S)NC(=O)CC)cc1 | 1.21 (inactive) | 1.77 (inactive) | 1.05 (inactive) | 2.42 | 1.22 (inactive) | 1.17 (inactive)
33 | Cn1ncc(S(=O)(=O)Cc2ccccc2)c(Cl)c1=O | 1.24 (inactive) | 1.33 (inactive) | 1.13 (inactive) | 1.83 | 0.743 (inactive) | 1.47 (inactive)
34 | CC(=O)SC(C[N+](=O)[O-])c1cn(C(C)=O)c2ccccc12 (centres undefined) | 0.93 (inactive) | 1 (inactive) | 0.77 (inactive) | 1.48 (inactive) | 1.08 (inactive) | 0.785 (inactive)
